Source: patent publication US20050119224A1, “Use of n-acetyl-d-glucosamine in the manufacture of pharmaceutical useful for adjuvant treatment of perianal disease” (priority 2001, published 2005)

Columns and labels:
Pseudomonas aeruginosa = test: Test of resistance to field planting (Pseudomonas aeruginosa planting model); type: in vivo, Mice of Kunming Species; conditions: three dosages (high, middle, low), infused abdominally each day, feces culture
From the text: 1. Animal: Mice of Kunming Species, Provided by the 3rd Military Medical University P.R. China.
Firstly, the animals used for experiment were infused abdominally with a suspension of Pseudomonas aeruginosa so as to make a Pseudomonas aeruginosa planting model, the mice that have Pseudomonas aeruginosa in the feces specimen cultured continuously for three days are deemed as positive. 32 mices which were positive in the experiment for making model were selected and divided into four groups, that is, three experimental groups with different dosages and one control group, eight mice in each group. The experimental groups are infused abdominally with N-acetyl-D glucosamine each day according to a schedule, while the control group is infused with saline solution. Cultivate the excrement every day, observe the saturation of Pseudomonas aeruginosa planting growth.

liver lysosome membrane = test: Test of stabilizing lysosome membrane (rat model of endotoxin shock); type: in vivo, wistar rat; conditions: rat with endotoxin shock, versus saline control
From the text: • 1. Animals: wistar rat, provided by the 3rd Military Medical University P.R. China. • 2. Method: setting up a rat model of endotoxin shock, at the same time, for the liver lysosome of rat, carry out a test of stabilizing membranes in vivo and in vitro. The model animals were divided into two groups, in the experimental group, N-acetyl-D-glucosamine was used to carry out the treatment, in the control group, saline solution was used to carry out the same treatment. The condition of liver lysosome mambrane was reflected by the activity of acidic phosphatase (ACP). • 3. Result: the activity of free ACP in the control group and that in the experimental group are obviously different. • 4. […] V. Human on Trial

[1] = Human on trial (clinic test, peri-anal diseases); type: in vivo; conditions: pharmaceutical preparations made from the compound, humans suffering from peri-anal diseases

CC(=O)N[C@@H]1[C@@H](O)[C@H](O)[C@@H](CO)O[C@H]1O [compound of formula (I), N-acetyl-D-glucosamine]
resistance to Pseudomonas aeruginosa planting in intestines (Pseudomonas aeruginosa): able to effectively resist Pseudomonas aeruginosa in intestines | stabilization of liver lysosome membrane (liver lysosome membrane; in vivo and in vitro): able to effectively stabilize liver lysosome membrane | release of acidic phosphatase (ACP) (liver lysosome membrane; liver lysosome): decrease the release of acidic phosphatase | relief of peri-anal symptoms [1]: able to eliminate or relieve quickly the peri-anal uncomfortableness, pain, exudation, pruritus and the like
